Values of other authors, collected in patent publication US20060063742A1, “Method of treatment for or protection against lymphedema” (priority 2004, published 2006).

Columns and labels:
mice = conditions: intravenously, doses higher than 3750 mg/kg
dogs = conditions: intravenously, doses higher than 3750 mg/kg
humans = conditions: doses exceeding 40 g/m^2

Row | SMILES | adverse effects (mice) | adverse effects (dogs) | adverse effects (humans) | accepted oral LD50 [mg/kg]
1 | O=S(=O)([O-])CCSSCCS(=O)(=O)[O-].[Na+].[Na+] [Dimesna, disodium 2,2′-dithiobis ethane sulfonate] | no adverse effects | no adverse effects | no adverse effects | –
2 | [Cl-].[Na+] [common table salt] | – | – | – | 3750
